Data published in patent US6083941A, “Inhibition of NMDA receptor activity by pregnenolone sulfate derivatives” (Trustees of Boston University, priority 1998, dated 2000).
Where “and” joins values, the source holds several entries; their conditions need not be identical. Equal entries are not always repeated. Structures can show the parent of a compound that is named as a salt.

Assays:
[1] = tested on: mice; assay: Behavioral observational assessment after i.p. steroid; format: in vivo; details: 25 mg/kg i.p.; for behavioral assessment: 30 min. after injection
Description: To test for behavioral effects, PS, 5β3αS, 5β3αHS, βE2 (17)HS, or βE2 (3)HS (7 mg/ml in DMSO) was administered to mice i.p. at 25 mg/kg (5 animals per drug group). Behavioral assessments were made 30 min. after injection using a comprehensive observational assessment of motor-affective responses, sensory-motor responses, posture, muscle tone, equilibration, CNS excitation, and autonomic function (Irwin, R. P., et al., NeuroSci. Lett., 141:30-44 (1968)). […] The latency to loss of righting reflex was 2.5±0.5 min., and the latency to regain the righting reflex was 83±11 min. The rapidity of onset argues that 5β3αHS readily crosses the blood brain barrier.

[2] = tested on: NMDA receptor; assay: Whole cell patch clamp, NMDA-induced current in cultured chick spinal cord neurons; format: cell-based; details: for average inhibition of the current induced by 30 μM NMDA: 50 μM steroid
Description: Cultures of dissociated spinal cord neurons were prepared as previously described (Farb, D. H., et al., J. Cell Biol., 80:651-661 (1979)). Briefly, the dissociated cells from 7-day chick embryos were plated on collagen-coated 35-mm tissue culture dishes in Eagle's minimum essential medium supplemented with 2.4 mM glutamine, 10% (v/v) heat-inactivated horse serum, 5% (v/v) chick embryo extract and antibiotics. Cultures were maintained in a humidified atmosphere of 5% CO2, 95% air at 37°. Cytarabine (1 μM) was added to the culture medium after 36 hr. of the initial plating to inhibit the proliferation of non-neuronal cells. One day later, this medium was replaced with a similar medium supplemented with 20.5 mM glucose, 19 mM KCl, and 2.5% chick embryo extract. Fresh medium was added twice weekly. Cultured neurons were used in experiments within 2-4 weeks after plating.
Experiments were carried out in 35-mm tissue culture dishes on the stage of an inverted phase contrast microscope. Whole cell currents were recorded by the whole cell variant of the patch clamp technique (Hamill, O. P., et al., Pfagers Arch. 891:85-100 (1981)). Patch electrodes had tip openings of about […] and resistances of 3-8 M.OMEGA. using an intracellular solution comprised of the following (in mM): 140 CsCl, 11 EGTA, and 10 HEPES (pH adjusted to 7.2 with CsOH). In experiments in which a high concentration of glycine was used, the intracellular solution was replaced with a low chloride (10 mM) pipette solution. This solution contained the following (in mM): 140 potassium gluconate, 10 KCl, 8 sodium gluconate, 11 EGTA, and 10 HEPES (pH adjusted to 7.2 with KOH). To prevent a marked run-down of NMDA-induced current at high NMDA concentrations, 4 mM potassium ATP was included in the intracellular solution. The bath solution contained the following (in mM): 150 NaCl, 4 KCl, 1 CaCl2, and 10 HEPES (pH adjusted to 7.2 with NaOH). No glycine was added to the solutions containing NMDA, because no additional glycine was required to obtain a robust NMDA response, and there was no effect of a maximal concentration (10 μM) of glycine on 5β3αS inhibition of the NMDA response. All experiments were performed at room temperature (23-25° C.).
Recordings were made using an Axopatch 1B patch clamp apparatus (Axon Instruments, Burlingame, Calif.). Cells with series resistances greater than 10 M.OMEGA. were rejected. After partial compensation, series resistances were between 3.5 and 6 M.OMEGA.. The holding potential was maintained at -70 mV unless otherwise noted. Currents were filtered at 1 kHz using an eight-pole Bessel filter (-3 dB) and digitized ([…]) using an on-line data acquisition system (pClamp, Axon Instruments).
Drug solutions were applied to single neurons by pressure ejection (15 psi) from seven-barrel pipettes. Seven-barrel pressure pipettes were positioned approximately […] from the neuronal soma. Under these conditions, the drug solution in the pressure pipette rapidly and effectively replaces the solution surrounding the target neurons with less than 10% dilution (Choi, D. W., et al., Nature (Lond.) 269:342-344 (1977); Chan, C. Y., et al., Life Sci., 83:2061-2069 (1983); Chan, C. Y. and Farb, D. H., J. Neurosci., 5:2365-2373 (1985)). All drugs were obtained from Sigma, with the except of AMPA hydrobromide (Research Biochemicals) and steroids (Steraloids). Stock solutions of steroids were prepared in dimethyl sulfoxide, the final concentration of which was 0.5% (v/v). To obviate the possible effects of dimethyl sulfoxide on the relevant agonist-induced currents, all other drug solutions including NMDA, kainate, AMPA and external buffer (in the pressure pipette) also contained 0.5% dimethyl sulfoxide. […]

## CC(=O)[C@H]1CC[C@H]2[C@@H]3CC[C@@H]4C[C@H](OS(=O)(=O)O)CC[C@]4(C)[C@H]3CC[C@]12C [5β3αS, 3α-hydroxy-5β-pregnan-20-one sulfate]
[1]
  behavioral assessment: very minor behavioral impairment
[2]; in the absence of glycine
  average inhibition of the current induced by 30 μM NMDA: 49.1±3.4%
[2]; with added 10 μM glycine
  average inhibition of the current induced by 30 μM NMDA: 51.3±3.5%
[2]; 100 μM steroid applied with NMDA, holding potential -70 mV, sulfate
  inhibition of the response to 30 μM NMDA: 66% and 66.1±2.7%
[2]; 100 μM steroid, holding potential +50 mV
  average inhibition of the NMDA-induced current: 62.0±2.8%
[2]; 100 μM steroid, holding potential -70 mV, voltage dependence test
  average inhibition of the NMDA-induced current: 63.2±2.7%
[2]; curve-fit analysis
  maximal inhibition of the 30 μM NMDA response: 101.1%
[2]; in the presence of 50 μM 5β3αS
  NMDA nH in the presence of steroid: 1.46
[2]; read-out: EC50 for inhibition of the 30 μM NMDA response, concentration-response curve, curve-fit, 30 μM NMDA, sulfate
  EC50: 62 µM and 62.1 µM
[2]; steroid alone
  direct response to steroid applied alone: did not produce any direct response

## CC(=O)[C@H]1CC[C@H]2[C@@H]3CC[C@@H]4C[C@H](OC(=O)CCC(=O)O)CC[C@]4(C)[C@H]3CC[C@]12C [5β3αHS, 3α-hydroxy-5β-pregnan-20-one hemisuccinate]
[1]
  latency to loss of righting reflex: 2.5 ± 0.5 min
  latency to regain the righting reflex: 83 ± 11 min
  behavioral assessment: lost virtually all muscle tone

## CC(=O)C1CCC2C3CC=C4CC(OS(=O)(=O)O)CCC4(C)C3CCC12C (stereo not drawn) [PS, pregnenolone sulfate]
[1]
  behavioral assessment: unaffected except for a single decreased score on locomotor activity
[2]; 100 μM steroid in the electrode buffer
  average NMDA response with intracellular steroid: did not differ significantly from control
[2]; 100 μM steroid in the presence of 10 μM arachidonic acid
  potentiation of the NMDA response: 182±25%
[2]; 100 μM steroid in the presence of 200 μM 5β3βS
  potentiation of the NMDA response: still evident
[2]; 100 μM steroid, after about 1 hour of 4 mM DTT
  potentiation of the NMDA induced current: 165±26%
[2]; 100 μM steroid, in the absence of spermine
  potentiation of the response to 30 μM NMDA: 150±14%
[2]; 100 μM steroid, in the presence of 100 μM spermine
  potentiation of the NMDA response: 178±12%
[2]; after DTT plus NEM treatment
  potentiation of the 30 μM NMDA response: 103±23%
[2]; after approximately 1 hour of exposure to 10 mM DTT
  potentiation of the NMDA response: 161±12%
[2]; in the absence of intracellular PS
  potentiation of the NMDA response by extracellularly applied steroid: 158±24%
[2]; in the presence of intracellular PS (100 μM)
  potentiation of the NMDA response by extracellularly applied steroid: 152±23%
